In brackets after ≈: the same amount, converted by molar mass. Read-outs that look alike come from different tables or passages of the source.
Columns and labels:
Format in all cases: cell-based
[1] = test system: Enterococcus faecalis ATCC29212; assay: MIC, microbroth dilution; details: rifS, BHI Broth, 37° C., read-out: MIC
In short: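 Antimicrobial activity against E. faecalis was assessed as the MIC, using the microbroth dilution procedure described by NCCLS (2000) guidelines. BHI Broth served as the culture medium, and all incubations for growth were performed at 37° C rather than under the guideline's default conditions.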

[2] = test system: Mycobacterium smegmatis ATCC700084; assay: MIC, microbroth dilution
In short: (§1)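 Broth microdilution per NCCLS, 37 °C incubation. Media: cation-adjusted MHB (S. aureus, incl. rpoB mutant), BHI + NAD + hematin (H. influenzae), Middlebrook + ADC (M. smegmatis).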

[3] = test system: Staphylococcus aureus ATCC29213; assay: MIC, microbroth dilution; details: rifS, Cation-Adjusted Mueller-Hinton Broth, 37° C., read-out: MIC
In short: as §1

[4] = test system: Staphylococcus aureus ATCC29213 rpoB^H418Y; assay: microbe, parasite or virus in culture
Method: (§2) Representative compounds were assayed for antimicrobial activity as follows: Minimum Inhibitory Concentrations (“MICs”) were determined by the microbroth dilution method as per NCCLS guidelines (National Committee for Clinical Laboratory Standards, 2000), except that all growth incubations were conducted at 37° C. Bacterial cultures were tested in the following bacteriological media: S. aureus, S. epidermidis, and E. coli in Cation-Adjusted Mueller-Hinton Broth, S. pneumoniae in THY Broth supplemented with 1 mg/mL catalase under 5% CO2 atmosphere, S. pyogenes in THY Broth, E. faecalis in BHI Broth, H. influenzae in BHI Broth supplemented with 0.75 μL of 1 mg/mL NAD and 150 μL of 1 mg/ml hematin per 5 mL, and M smegmatis in Middlebrook Broth plus ADC Enrichment.

[5] = test system: Staphylococcus aureus ATCC29213 rpoB^D417Y; assay: microbe, parasite or virus in culture
Method: as §2

[6] = test system: H. influenzae ATCC 10211 and E. coli ATCC 25922; assay: MIC, summary over Gram-negative bacteria
Method: as §2

[7] = test system: Streptococcus pyogenes ATCC19615; assay: MIC, microbroth dilution; details: rifS, THY Broth, 37° C.
[8] = test system: Haemophilus influenzae ATCC10211; assay: MIC, microbroth dilution
In short: as §1

[9] = test system: Streptococcus pneumoniae ATCC6303; assay: MIC, microbroth dilution; details: rifS, THY Broth supplemented with 1 mg/mL catalase under 5% CO2, 37° C.
[10] = test system: Staphylococcus epidermidis ATCC12228; assay: MIC, microbroth dilution; details: rifS, Cation-Adjusted Mueller-Hinton Broth, 37° C.
In short: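 MICs by microbroth dilution per NCCLS guidelines, all incubations at 37 °C. S. aureus in cation-adjusted Mueller-Hinton broth; H. influenzae in BHI broth with NAD and hematin; M. smegmatis in Middlebrook broth plus ADC enrichment.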

[11] = test system: Escherichia coli ATCC25922; assay: MIC, microbroth dilution; details: rifS, Cation-Adjusted Mueller-Hinton Broth, 37° C.
[12] = MIC, summary over rifampin-susceptible Gram-positive strains; details: read-out: MICs
Method: as §2

[13] = Mycolicibacterium smegmatis, ATCC700084, rifS, Middlebrook Broth plus ADC Enrichment, 37° C., read-out: MIC

MIC [1] [mg/L] | MIC [2, 13] [mg/L] | MIC [3] [mg/L] | Structure (SMILES) | other results
0.25 to 62 (≈ 0.214 to 53.1 µM) | 0.063 to 31 | 0.002 to 1.95 (≈ 0.00171 to 1.67 µM) | CO[C@H]1/C=C/O[C@@]2(C)Oc3c(C)c(O)c4c(c3C2=O)C(=O)C(N2CCOCC2)=C(NC(=O)/C(C)=C\C=C\[C@H](C)[C@H](O)[C@@H](C)[C@@H](O)[C@@H](C)[C@H](OC(=O)N2CCN(c3ccc(C(=O)Nc5ccc6[nH]c(C)cc6c5)cc3C(F)(F)F)CC2)[C@@H]1C)C4=O [Example 51, 25-O-Desacetyl-(carbonyl-N-(2-methyl-1H-indol-5-yl)-4-piperazin-1-yl-3-trifluoromethyl-benzamide) 3-morpholino rifamycin S] | 
0.25 to 62 (≈ 0.218 to 54.1 µM) | 0.063 to 31 | 0.002 to 1.95 (≈ 0.00175 to 1.7 µM) | COc1cncc(NC(=O)c2ccc(N3CCN(C(=O)O[C@H]4[C@H](C)[C@H](O)[C@H](C)[C@@H](O)[C@@H](C)/C=C/C=C(/C)C(=O)NC5=C(N6CCOCC6)C(=O)c6c(c(O)c(C)c7c6C(=O)[C@@](C)(O/C=C/[C@H](OC)[C@H]4C)O7)C5=O)CC3)c(C(F)(F)F)c2)c1 [Example 53, 25-O-Desacetyl-(carbonyl-N-(5-methoxy-pyridin-3-yl)-4-piperazin-1-yl-3-trifluoromethyl-benzamide) 3-morpholino rifamycin S] | 
0.25 to 62 (≈ 0.207 to 51.3 µM) | 0.063 to 31 | 0.002 to 1.95 (≈ 0.00165 to 1.61 µM) | COc1c(N2CCC(NC3CCN(C(=O)O[C@H]4[C@H](C)[C@H](O)[C@H](C)[C@@H](O)[C@@H](C)/C=C/C=C(/C)C(=O)NC5=C(N6CCOCC6)C(=O)c6c(c(O)c(C)c7c6C(=O)[C@@](C)(O/C=C/[C@H](OC)[C@H]4C)O7)C5=O)CC3)C2)c(F)cc2c(=O)c(C(=O)O)cn(C3CC3)c12 (stereo partly drawn) [Example 56] | 
0.25 to 62 (≈ 0.212 to 52.6 µM) | 0.063 to 31 | 0.002 to 1.95 (≈ 0.0017 to 1.65 µM) | CO[C@H]1/C=C/O[C@@]2(C)Oc3c(C)c(O)c4c(c3C2=O)C(=O)C(N2CCOCC2)=C(NC(=O)/C(C)=C\C=C\[C@H](C)[C@H](O)[C@@H](C)[C@@H](O)[C@@H](C)[C@H](OC(=O)N2CCC(N3CCN(c5cc6c(cc5F)c(=O)c(C(=O)O)cn6C5CC5)CC3)CC2)[C@@H]1C)C4=O [Example 57] | 
0.25 to 62 (≈ 0.204 to 50.7 µM) | 0.063 to 31 | 0.002 to 1.95 (≈ 0.00163 to 1.59 µM) | COc1c(N2CCC(NC3CCN(C(=O)O[C@H]4[C@H](C)[C@H](O)[C@H](C)[C@@H](O)[C@@H](C)/C=C/C=C(/C)C(=O)NC5=C(N6CCOCC6)C(=O)c6c(c(O)c(C)c7c6C(=O)[C@@](C)(O/C=C/[C@H](OC)[C@H]4C)O7)C5=O)CC3)CC2)c(F)cc2c(=O)c(C(=O)O)cn(C3CC3)c12 [Example 58] | 
0.25 to 62 (≈ 0.204 to 50.7 µM) | 0.063 to 31 | 0.002 to 1.95 (≈ 0.00163 to 1.59 µM) | COc1c(N2CCCC(NC3CCN(C(=O)O[C@H]4[C@H](C)[C@H](O)[C@H](C)[C@@H](O)[C@@H](C)/C=C/C=C(/C)C(=O)NC5=C(N6CCOCC6)C(=O)c6c(c(O)c(C)c7c6C(=O)[C@@](C)(O/C=C/[C@H](OC)[C@H]4C)O7)C5=O)CC3)C2)c(F)cc2c(=O)c(C(=O)O)cn(C3CC3)c12 (stereo partly drawn) [Example 59] | 
0.25 to 62 (≈ 0.207 to 51.3 µM) | 0.063 to 31 | 0.002 to 1.95 (≈ 0.00165 to 1.61 µM) | COc1c(N2CCN(C3CCN(C(=O)O[C@H]4[C@H](C)[C@H](O)[C@H](C)[C@@H](O)[C@@H](C)/C=C/C=C(/C)C(=O)NC5=C(N6CCOCC6)C(=O)c6c(c(O)c(C)c7c6C(=O)[C@@](C)(O/C=C/[C@H](OC)[C@H]4C)O7)C5=O)CC3)CC2)c(F)cc2c(=O)c(C(=O)O)cn(C3CC3)c12 [Example 60] | 
0.25 to 62 (≈ 0.209 to 51.9 µM) | 0.063 to 31 | 0.002 to 1.95 (≈ 0.00167 to 1.63 µM) | COc1c(N2CCN(C3CCN(C(=O)O[C@H]4[C@H](C)[C@H](O)[C@H](C)[C@@H](O)[C@@H](C)/C=C/C=C(/C)C(=O)NC5=C(N6CCOCC6)C(=O)c6c(c(O)c(C)c7c6C(=O)[C@@](C)(O/C=C/[C@H](OC)[C@H]4C)O7)C5=O)C3)CC2)c(F)cc2c(=O)c(C(=O)O)cn(C3CC3)c12 (stereo partly drawn) [Example 62] | 
0.25 to 62 (≈ 0.21 to 52.2 µM) | 0.063 to 31 | 0.002 to 1.95 (≈ 0.00168 to 1.64 µM) | CO[C@H]1/C=C/O[C@@]2(C)Oc3c(C)c(O)c4c(c3C2=O)C(=O)C(N2CCOCC2)=C(NC(=O)/C(C)=C\C=C\[C@H](C)[C@H](O)[C@@H](C)[C@@H](O)[C@@H](C)[C@H](OC(=O)NCC(=O)NC2CCN(c3c(F)cc5c(=O)c(C(=O)O)cn(C6CC6)c5c3Cl)C2)[C@@H]1C)C4=O (stereo partly drawn) [Example 63] | 
0.25 to 62 (≈ 0.211 to 52.4 µM) | 0.063 to 31 | 0.002 to 1.95 (≈ 0.00169 to 1.65 µM) | COc1c(N2CCN(C(=O)CNC(=O)O[C@H]3[C@H](C)[C@H](O)[C@H](C)[C@@H](O)[C@@H](C)/C=C/C=C(/C)C(=O)NC4=C(N5CCOCC5)C(=O)c5c(c(O)c(C)c6c5C(=O)[C@@](C)(O/C=C/[C@H](OC)[C@H]3C)O6)C4=O)CC2)c(F)cc2c(=O)c(C(=O)O)cn(C3CC3)c12 [Example 64] | 
0.25 to 62 (≈ 0.204 to 50.7 µM) | 0.063 to 31 | 0.002 to 1.95 (≈ 0.00163 to 1.59 µM) | COc1c(N2CCN(C(=O)C3CN(C(=O)O[C@H]4[C@H](C)[C@H](O)[C@H](C)[C@@H](O)[C@@H](C)/C=C/C=C(/C)C(=O)NC5=C(N6CCOCC6)C(=O)c6c(c(O)c(C)c7c6C(=O)[C@@](C)(O/C=C/[C@H](OC)[C@H]4C)O7)C5=O)C3)C(C)C2)c(F)cc2c(=O)c(C(=O)O)cn(C3CC3)c12 (stereo partly drawn) [Example 65] | 
0.25 to 62 (≈ 0.207 to 51.3 µM) | 0.063 to 31 | 0.002 to 1.95 (≈ 0.00165 to 1.61 µM) | COc1c(N2CCN(C(=O)C3CN(C(=O)O[C@H]4[C@H](C)[C@H](O)[C@H](C)[C@@H](O)[C@@H](C)/C=C/C=C(/C)C(=O)NC5=C(N6CCOCC6)C(=O)c6c(c(O)c(C)c7c6C(=O)[C@@](C)(O/C=C/[C@H](OC)[C@H]4C)O7)C5=O)C3)CC2)c(F)cc2c(=O)c(C(=O)O)cn(C3CC3)c12 [Example 66] | 
0.25 to 62 (≈ 0.221 to 54.8 µM) | 0.063 to 31 | 0.002 to 1.95 (≈ 0.00177 to 1.72 µM) | CO[C@H]1/C=C/O[C@@]2(C)Oc3c(C)c(O)c4c(c3C2=O)C(=O)C(N2CCOCC2)=C(NC(=O)/C(C)=C\C=C\[C@H](C)[C@H](O)[C@@H](C)[C@@H](O)[C@@H](C)[C@H](OC(=O)NC2CCN(c3c(F)cc5c(=O)c(C(=O)O)cn(C6CC6)c5c3Cl)C2)[C@@H]1C)C4=O (stereo partly drawn) [Example 67, 25-O-Desacetyl-(carbonyl-N-7-(3-amino-pyrrolidin-1-yl)-8-chloro-1-cyclopropyl-6-fluoro-4-oxo-1,4-dihydro-quinoline-3-carboxylic acid) 3-morpholino rifamycin S] | 
0.25 to 62 (≈ 0.218 to 54.1 µM) | 0.063 to 31 | 0.002 to 1.95 (≈ 0.00175 to 1.7 µM) | CO[C@H]1/C=C/O[C@@]2(C)Oc3c(C)c(O)c4c(c3/C2=N/O)C(=O)C(N2CCOCC2)=C(NC(=O)/C(C)=C\C=C\[C@H](C)[C@H](O)[C@@H](C)[C@@H](O)[C@@H](C)[C@H](OC(=O)NC2CCN(c3c(F)cc5c(=O)c(C(=O)O)cn(C6CC6)c5c3Cl)C2)[C@@H]1C)C4=O (stereo partly drawn) [Example 68] | 
0.25 to 62 (≈ 0.288 to 71.4 µM) | 0.063 to 31 | 0.002 to 1.95 (≈ 0.0023 to 2.25 µM) | CO[C@H]1/C=C/O[C@@]2(C)Oc3c(C)c(O)c4c(c3/C2=N/O)C(=O)C(N2CCOCC2)=C(NC(=O)/C(C)=C\C=C\[C@H](C)[C@H](O)[C@@H](C)[C@@H](O)[C@@H](C)[C@H](OC(=O)NCCN(C)C)[C@@H]1C)C4=O [Example 69] | 

Structure (SMILES) | MIC [1] [mg/L] | MIC [2, 13] [mg/L] | MIC [3] [mg/L] | other results
CO[C@H]1/C=C/O[C@@]2(C)Oc3c(C)c(O)c4c(O)c(c(/C=N/N5CCN(C)CC5)c(O)c4c3C2=O)NC(=O)/C(C)=C\C=C\[C@H](C)[C@H](O)[C@@H](C)[C@@H](O)[C@@H](C)[C@H](OC(C)=O)[C@@H]1C [rifampin] | 0.98 (≈ 1.19 µM) | 64 | 0.008 (≈ 0.00972 µM) | MIC ([4]; ATCC29213, rifR, Cation-Adjusted Mueller-Hinton Broth, 37° C.): 7.8 mg/L (≈ 9.48 µM); MIC ([4]; ATCC29213, text, rifampin-resistant strain S. aureus ATCC 29213 RpoB^H418Y): 8 mg/L (≈ 9.72 µM); MIC ([5]; Staphylococcus aureus, ATCC29213): > 64 mg/L; MIC ([5]; rifR, Cation-Adjusted Mueller-Hinton Broth, 37° C.): >64 mg/L; MIC [6]: 0.24 to 16 mg/L (≈ 0.292 to 19.4 µM); MIC [7]: 0.013 mg/L (≈ 0.0158 µM); MIC [8]: 0.24 mg/L (≈ 0.292 µM); MIC [9]: 0.061 mg/L (≈ 0.0741 µM); MIC ([2]; mycobacterial strain M smegamatis ATCC 700084): 64 mg/L (≈ 77.8 µM); MIC [10]: 0.03 mg/L (≈ 0.0365 µM); MIC [11]: 16 mg/L (≈ 19.4 µM); MIC [12]: 0.03 to 1.3 mg/L (≈ 0.0365 to 1.58 µM)

— US7250413B2, “C-25 carbamate rifamycin derivatives with activity against drug-resistant microbes” (Cumbre Pharmaceuticals Inc., priority 2004, dated 2007)
